Results taken from the supplement of paper PMC10331698.
± gives the standard deviation of the averaged measurements.

Columns and labels:
Assay in all cases: level (log10 ratio to DMSO vehicle control); higher = higher biomarker level / cell amount than vehicle control
[1] = compound: OCCCC(F)(F)C(F)(F)C(F)(F)C(F)(F)C(F)(F)C(F)(F)C(F)(F)C(F)(F)F [3-(Perfluorooctyl)propanol]; conditions: 6700 nM; in DMSO
Description: (§1)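 BioMAP Diversity Plus panel of 12 human primary cell co-culture systems (3C, 4H, LPS, SAg, BT, BF4T, BE3C, CASM3C, HDF3CGF, KF3CT, MyoF, Mphg). Compounds were added 1 h before stimulation and left for 24 h (MyoF 48 h; BT 72 h for soluble read-outs or 6 d for IgG). Biomarkers were read by ELISA, cytotoxicity by SRB, PBMC viability and proliferation by Alamar Blue. Each well value was divided by the mean of 8 DMSO control wells on the same plate and log10 transformed; duplicate blinded samples were tested at 4 concentrations.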

[2] = compound: OCC(F)(F)C(F)(F)C(F)(F)C(F)(F)C(F)(F)C(F)(F)C(F)(F)C(F)(F)C(F)(F)C(F)(F)C(F)(F)F [11:1 Fluorotelomer alcohol]; conditions: in DMSO
Description: as §1

[3] = compound: FC(F)(I)C(F)(F)C(F)(F)C(F)(F)C(F)(F)C(F)(F)I [1,6-Diiodoperfluorohexane]; conditions: 6700 nM; in DMSO
Description: as §1

[4] = compound: OCCCCC(F)(F)C(F)(F)C(F)(F)C(F)(F)F [4:4 Fluorotelomer alcohol]; conditions: in DMSO
Description: as §1

[5] = compound: C=CC(=O)OCCC(F)(F)C(F)(F)C(F)(F)C(F)(F)C(F)(F)C(F)(F)C(F)(F)C(F)(F)F [8:2 Fluorotelomer acrylate]; conditions: in DMSO
Description: as §1

[6] = compound: OCC(F)(F)C(F)(F)C(F)(F)C(F)(F)C(F)(F)C(F)(F)F [6:1 Fluorotelomer alcohol]; conditions: in DMSO
Description: as §1

[7] = compound: FC(F)(F)COC(OCC(F)(F)F)OCC(F)(F)F [tris(Trifluoroethoxy)methane]; conditions: in DMSO
Description: as §1

[8] = compound: OCCC(F)(F)C(F)(F)C(F)(F)C(F)(F)C(F)(F)C(F)(F)C(F)(F)C(F)(F)F [8:2 Fluorotelomer alcohol]; conditions: 6700 nM; in DMSO
Description: as §1

Row | Test System | level (log10) [1] | level (log10) ([2]; 1100 nM) | level (log10) ([2]; 3300 nM) | level (log10) ([2]; 10000 nM) | level (log10) [3] | level (log10) ([4]; 6700 nM) | level (log10) ([4]; 20000 nM) | level (log10) ([4]; 60000 nM) | level (log10) ([5]; 6700 nM) | level (log10) ([5]; 20000 nM) | level (log10) ([5]; 60000 nM) | level (log10) ([6]; 6700 nM) | level (log10) ([6]; 20000 nM) | level (log10) ([6]; 60000 nM) | level (log10) ([7]; 6700 nM) | level (log10) ([7]; 20000 nM) | level (log10) ([7]; 60000 nM) | level (log10) [8]
1 | BE3C:CXCL9/MIG | -0.0045 ± 0.018 | -0.0195 ± 0.00071 | -0.03 ± 0.0028 | -0.0385 ± 0.022 | 0.01 | 0.01 ± 0.0042 | -0.0025 ± 0.005 | 0.0095 ± 0.0092 | -0.0115 ± 0.0035 | -0.0075 ± 0.00071 | 0.0115 ± 0.021 | -0.005 ± 0.013 | -0.002 ± 0.0099 | -0.545 ± 0.4 | 0.001 ± 0.0071 | 0.0025 ± 0.023 | -0.0045 ± 0.018 | -0.0095 ± 0.00071
2 | BE3C:CXCL10/IP-10 | -0.009 ± 0.0099 | -0.0345 ± 0.035 | -0.0745 ± 0.03 | -0.043 ± 0.0071 | 0.008 | -0.0035 ± 0.0021 | 0 | 0.014 ± 0.017 | -0.0215 ± 0.015 | -0.0165 ± 0.023 | 0.0005 ± 0.05 | 0.0355 ± 0.005 | 0.028 ± 0.011 | 0.0075 ± 0.025 | -0.001 ± 0.0085 | -0.0035 ± 0.018 | 0.0095 ± 0.0021 | -0.0515 ± 0.057
3 | BE3C:CXCL11/I-TAC | -0.003 ± 0.011 | -0.0085 ± 0.018 | -0.025 ± 0.024 | -0.005 ± 0.013 | 0.024 | -0.013 ± 0.0028 | -0.0125 ± 0.00071 | -0.0025 ± 0.015 | -0.019 ± 0.011 | -0.0115 ± 0.013 | 0.003 ± 0.011 | 0.027 ± 0.0057 | 0.011 ± 0.017 | 0.008 ± 0.0099 | 0.0065 ± 0.012 | -0.002 ± 0.0042 | 0.0015 ± 0.0021 | -0.012 ± 0.0014
4 | BE3C:EGFR | -0.018 ± 0.0071 | -0.022 ± 0.011 | -0.003 ± 0.018 | -0.019 ± 0.0099 | -0.015 | 0.025 ± 0.0085 | 0.022 ± 0.038 | 0.02 ± 0.065 | -0.0155 ± 0.0021 | -0.015 ± 0.013 | 0.003 ± 0.025 | 0.0115 ± 0.0064 | 0.0035 ± 0.011 | -0.0585 ± 0.081 | 0.022 ± 0.041 | 0.0095 ± 0.033 | 0.005 ± 0.021 | -0.019 ± 0.0014
5 | BE3C:HLA-DR | -0.01 ± 0.023 | -0.0755 ± 0.037 | -0.141 ± 0.015 | -0.163 ± 0.0042 | -0.01 | -0.0005 ± 0.018 | -0.0075 ± 0.0064 | -0.0035 ± 0.016 | -0.0045 ± 0.011 | 0.009 ± 0.017 | 0.019 ± 0.034 | 0.009 ± 0.025 | -0.0085 ± 0.026 | -0.077 ± 0.13 | -0.0015 ± 0.011 | 0.0155 ± 0.0064 | 0.006 ± 0.021 | -0.02
6 | BE3C:IL-1alpha | 0.0155 ± 0.03 | -0.011 ± 0.018 | -0.0325 ± 0.0021 | -0.029 ± 0.02 | -0.004 | 0.0255 ± 0.00071 | 0.0095 ± 0.011 | 0.0155 ± 0.021 | -0.007 ± 0.021 | -0.015 ± 0.0042 | 0.0165 ± 0.029 | -0.019 ± 0.0014 | 0.008 ± 0.0014 | -0.0155 ± 0.04 | 0.0075 ± 0.021 | -0.006 ± 0.021 | 0.021 ± 0.0057 | -0.014 ± 0.0014
7 | BF4T:CCL2/MCP-1 | -0.0265 ± 0.0092 | 0.018 ± 0.042 | 0.0235 ± 0.021 | 0.031 ± 0.023 | -0.172 | 0.0115 ± 0.044 | 0.007 ± 0.024 | 0.048 ± 0.099 | -0.007 ± 0.038 | -0.0265 ± 0.015 | -0.026 ± 0.041 | 0.0155 ± 0.015 | -0.014 ± 0.028 | 0.0285 ± 0.015 | 0.0025 ± 0.023 | -0.0115 ± 0.032 | 0.019 ± 0.061 | -0.0135 ± 0.0035
